Patent US11666566B2, “Formulations and pharmacokinetics of deuterated benzoquinoline inhibitors of vesicular monoamine transporter 2” (AUSPEX PHARMACEUTICALS, INC., priority 2012, dated 2023)
Like-named read-outs stand apart in the source and are kept apart here.

Experiments:
[1] = Phase 1 pharmacokinetic study, single oral 25 mg dose of d6-tetrabenazine or tetrabenazine (immediate release, powder in capsule), two-period crossover; type: in vivo, human; conditions: for Cmax / AUCinf / AUClast / Tmax / t1/2: plasma analyte, single oral 25 mg d6-tetrabenazine or tetrabenazine; for Cmax / AUCinf (AUClast presented for parent drug as AUCinf not calculable) / AUCinf / AUClast / Tmax / t1/2: fasted, mean; for AUCinf (AUClast presented for parent drug as AUCinf not calculable): parent drug in plasma, single oral 25 mg; for Ratio of LS Means, AUCinf / Ratio of LS Means, AUClast / Ratio of LS Means, Cmax / Ratio of LS Means, t1/2: d6-tetrabenazine 25 mg (test) to tetrabenazine 25 mg (reference), ANOVA
Description: A Phase 1 pharmacokinetic study was conducted in 24 healthy extensive and intermediate CYP2D6 metabolizer volunteers receiving oral 25 mg doses of d6-tetrabenazine or tetrabenazine to compare the relative bioavailability and pharmacokinetics of single oral doses of d6-tetrabenazine and its metabolites d6-α-HTBZ and d6-β-HTBZ with their non-deuterated equivalents (tetrabenazine, α-HTBZ and β-HTBZ) as well as the corresponding O-desmethyl metabolites of α-HTBZ and β-HTBZ. Subjects received a single oral dose of 25 mg of d6-tetrabenazine or tetrabenazine after an overnight fast, as a powder in capsule, in Period 1 and following washout of at least 7 days. Patients were crossed over to receive the other treatment in Period 2. In each period, plasma samples were collected over 72 hours post-dose.
Pharmacokinetic results are shown below in Table 37 and FIG. 3, results are presented as Mean (% CV) for Cmax, AUC and t1/2 (AUClast presented for parent drug as AUCinf not calculable), and as Mean (range) for Tmax. The increased exposure was principally attributable to increases in half-life and was associated with proportional reductions in O-desmethyl metabolites of HTBZ.
The effect of deuteration on key pharmacokinetic parameters was evaluated by comparing d6-tetrabenazine (test) to tetrabenazine (reference) using an analysis of variance (ANOVA) model for a two-period crossover including factors Sequence, Treatment, Period and Subject. Pharmacokinetic parameters were log-transformed before analysis.

[2] = type: in vitro ADME
Source text: d6-Tetrabenazine has been designed with the intent to improve the pharmacokinetic profile of active metabolites α-HTBZ and β-HTBZ. The CYP mediated cleavage of the carbon-deuterium bonds within the trideuterated methyl groups (CD3) of d6-tetrabenazine is slower than the cleavage of the carbon-hydrogen bonds in the methyl groups (CH3) of tetrabenazine, an effect that selectively attenuated O-demethylation of deuterated α-HTBZ and β-HTBZ (d6-α-HTBZ and d6-β-HTBZ) in in vitro studies.
The spectrum of metabolites produced by d6-tetrabenazine is expected to be similar to that in patients with reduced CYP2D6 metabolism who receive tetrabenazine. This is based on in vitro metabolism studies and a drug interaction study of tetrabenazine and paroxetine. In the drug interaction study, co-administration of tetrabenazine and paroxetine increased systemic exposure to the α-HTBZ and β-HTBZ metabolites by 3- to 9-fold, respectively, compared to tetrabenazine alone (Xenazine® U.S. prescribing information). […] Administration of d6-tetrabenazine to healthy volunteers led to an approximate 2-fold increase in systemic exposure to α-HTBZ and β-HTBZ and proportional reductions in O-desmethyl metabolites compared to tetrabenazine. […]

[3] = human plasma; cited from earlier work
[4] = co-administration of tetrabenazine and paroxetine, compared to tetrabenazine alone; cited from earlier work

| AUCinf [1] [ng·h/mL] | AUClast [1] [ng·h/mL] | Cmax [1] [ng/mL] | Tmax [1] [h] | t1/2 [1] [h] | Molecule | also measured |
| --- | --- | --- | --- | --- | --- | --- |
| – | – | – | – | – | COc1cc2c(cc1OC)[C@@H]1CC(=O)[C@@H](CC(C)C)CN1CC2 (racemic) [Tetrabenazine, (3R,11bR)-1,3,4,6,7,11b-Hexahydro-9,10-dimethoxy-3-(2-methylpropyl)-2H-benzo[a]quinolizin-2-one, and (3S,11bS)-1,3,4,6,7,11b-hexahydro-9,10-dimethoxy-3-(2-methylpropyl)-2H-benzo[a]quinolizin-2-one, reference compound] | Cmax ([1]; human, read-out: Cmax): 0.314 ng/mL; AUCinf (AUClast presented for parent drug as AUCinf not calculable) [1]: 0.26 ng·h/mL |
| – | – | – | – | – | [2H]C([2H])([2H])Oc1cc2c(cc1OC([2H])([2H])[2H])[C@@H]1CC(=O)[C@@H](CC(C)C)CN1CC2 (racemic) [d6-Tetrabenazine, (3R,11bR)-1,3,4,6,7,11b-hexahydro-9,10-di(methoxy-d3)-3-(2-methylpropyl)-2H-benzo[a]quinolizin-2-one and (3S,11bS)-1,3,4,6,7,11b-hexahydro-9,10-di(methoxy-d3)-3-(2-methylpropyl)-2H-benzo[a]quinolizin-2-one] | systemic exposure to total (α+β)-HTBZ ([1]; compared to exposure following tetrabenazine administration): more than doubling; Cmax ([1]; human, read-out: Cmax): 0.327 ng/mL; AUCinf (AUClast presented for parent drug as AUCinf not calculable) [1]: 0.30 ng·h/mL |
| 49.9 | 42.5 | 5.05 | 2.00 | 6.95 | COc1cc2c(cc1O)CCN1C[C@@H](CC(C)C)[C@H](O)C[C@H]21 [9-O-desmethyl-α-HTBZ] | – |
| 220 | 205 | 15.7 | 1.75 | 16.2 | COc1cc2c(cc1O)CCN1C[C@@H](CC(C)C)[C@@H](O)C[C@H]21 [9-O-desmethyl-β-HTBZ] | – |
| – | 3.0 | 1.63 | 1.25 | – | COc1cc2c(cc1O)C1CC(O)C(CC(C)C)CN1CC2 (stereo not drawn) [10-ODM-β-HTBZ] | – |
| 114 | 92.4 | 6.29 | 1.75 | 16.9 | [2H]C([2H])([2H])Oc1cc2c(cc1O)CCN1C[C@@H](CC(C)C)[C@@H](O)C[C@H]21 [d3-9-O-desmethy1-β-HTBZ] | – |
| – | 21.0 | 2.15 | 3.02 | – | [2H]C([2H])([2H])Oc1cc2c(cc1O)CCN1C[C@@H](CC(C)C)[C@H](O)C[C@H]21 [d3-9-O-desmethyl-α-HTBZ] | – |
| – | 0.7 | 0.59 | 1.50 | – | [2H]C([2H])([2H])Oc1cc2c(cc1O)C1CC(O)C(CC(C)C)CN1CC2 (stereo not drawn) [d3-10-ODM-β-HTBZ] | – |
| 373 | – | 46.1 | 1.5 | 8.97 | [2H]C([2H])([2H])Oc1cc2c(cc1OC([2H])([2H])[2H])[C@H]1C[C@@H](O)[C@H](CC(C)C)CN1CC2 [d6-α-HTBZ, deuterated alpha-dihydrotetrabenazine] | less of the O-desmethyl metabolites produced [2]: 69-87% |
| 171 | – | 29.6 | 1.50 | 5.00 | [2H]C([2H])([2H])Oc1cc2c(cc1OC([2H])([2H])[2H])[C@@H]1C[C@@H](O)[C@@H](CC(C)C)CN1CC2 [d6-β-HTBZ, deuterated beta-dihydrotetrabenazine] | less of the O-desmethyl metabolites produced [2]: 69-87% |
| 74.0 | – | 20.5 | 1.00 | 2.95 | COc1cc2c(cc1OC)[C@H]1C[C@H](O)[C@H](CC(C)C)CN1CC2 [β-HTBZ, beta-dihydrotetrabenazine] | Ratio of LS Means, AUCinf [1]: 235.8%; Ratio of LS Means, AUClast [1]: 240.1%; Ratio of LS Means, Cmax [1]: 145.8%; Ratio of LS Means, t1/2 [1]: 153.0%; half-lives [3]: 5 h; increase in systemic exposure [4]: 9 fold |
| 189 | – | 41.2 | 1.00 | 5.47 | alpha-dihydrotetrabenazine [α-HTBZ] | Ratio of LS Means, AUCinf [1]: 213.6%; Ratio of LS Means, AUClast [1]: 214.8%; Ratio of LS Means, Cmax [1]: 113.7%; Ratio of LS Means, t1/2 [1]: 174.7%; half-lives [3]: 7 h; increase in systemic exposure [4]: 3 fold |
